The structures appear in SMILES notation.

In this assay the test system is TEAD-dependent transcription. Briefly: TEAD-dependent transcription cell-based reporter assay (MSTO-211H+12XGTIIC luciferase). On the set-up: species or system human. Particulars: Homo sapiens; MSTO-211H+12XGTIIC cell line, luciferase signal normalized to cell viability, 24 hours compound incubation; read-out: MSTO-211H GMean IC50 (uM) Cell Assay Reporter Cell Variant: TEAD. The method in brief:
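MSTO-211H mesothelioma cells stably carrying a 12xGTIIC TEAD-response-element luciferase reporter, treated with serial compound dilutions for 24 h at 37 °C. Luminescence normalized to CellTiter-Fluor viability signal; % inhibition versus DMSO and 20 μM K-975 controls, IC50 by nonlinear regression.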
The term IC50 denotes the concentration needed to halve the response being measured. With `NS(=O)(=O)CC(=O)N1CCc2ccc(Oc3ccc(C(F)(F)F)cc3)cc2C1` [P-0125, 2-oxo-2-(7-(4-(trifluoro-methyl)phenoxy)-3,4-dihydroisoquinolin-2(1H)-yl)ethane-1-sul-fonamide], the IC50 lay within 0.001 to 10 µM. As to `NS(=O)(=O)c1ccc(C(=O)N2CCc3ccc(Oc4ccc(C(F)(F)F)cc4)cc3C2)cc1` [P-0126, 4-(7-(4-(trifluorometh-yl)phenoxy)-1,2,3,4-tetrahydroisoquinoline-2-carbonyl)benzene-sulfonamide], the IC50 was in the range of 0.001 to 10 µM. Regarding `NC(=O)c1ccc(C(=O)N2CCc3ccc(Oc4ccc(C(F)(F)F)cc4)cc3C2)cn1` [P-0127, 5-(7-(4-(trifluorometh-yl)phenoxy)-1,2,3,4-tetrahydroisoquinoline-2-carbonyl)picolinamide], the IC50 lay within 0.001 to 10 µM. As to `CNS(=O)(=O)NCC(=O)N1CCc2ccc(Oc3ccc(C(F)(F)F)cc3)cc2C1` [P-0128, N-methyl-N′-(2-(7-(4-(trifluoromethyl)phen-oxy)-3,4-dihydroisoquin-olin-2(1H)-yl)-2-oxoeth-yl)sulfamide], the IC50 was 0.001 to 10 µM. For `O=C1CCC(C(=O)N2CCc3ccc(Oc4ccc(C(F)(F)F)cc4)cc3C2)CN1` (stereo not shown) [P-0129, 5-(7-(4-(trifluoromethyl)-phenoxy)-1,2,3,4-tetra-hydroisoquinoline-2-carbonyl)piperidin-2-one], the IC50 lay within 0.001 to 10 µM. Take `O=C1CC(C(=O)N2CCc3ccc(Oc4ccc(C(F)(F)F)cc4)cc3C2)CCN1` (stereo not shown) [P-0130, 4-(7-(4-(trifluoromethyl)-phenoxy)-1,2,3,4-tetra-hydroisoquinoline-2-carbonyl)piperidin-2-one]: the IC50 was in the range of 0.001 to 10 µM. The value for `CC(C)(C)OC(=O)NCC(=O)N1CCc2ccc(Oc3ccc(C(F)(F)F)cc3)cc2C1` [P-0131, tert-butyl (2-oxo-2-(7-(4-(trifluoromethyl)phen-oxy)-3,4-dihydroisoquin-olin-2(1H)-yl)ethyl)-carbamate] was 0.001 to 10 µM. On to `O=C1CCC(CC(=O)N2CCc3ccc(Oc4ccc(C(F)(F)F)cc4)cc3C2)CN1` (stereo not shown) [P-0132, 5-(2-oxo-2-(7-(4-(trifluoromethyl)phen-oxy)-3,4-dihydroisoquin-olin-2(1H)-yl)ethyl)piper-idin-2-one], for which the IC50 lay in the range of 0.001 to 10 µM. For `O=C(Cc1cc[nH]n1)N1CCc2ccc(Oc3ccc(C(F)(F)F)cc3)cc2C1` [P-0133, 2-(1H-pyrazol-3-yl)-1-(7-(4-(trifluoromethyl)-phenoxy)-3,4-dihydroiso-quinolin-2(1H)-yl)ethan-1-one], the IC50 fell in the range of 0.001 to 10 µM. In the case of `N#Cc1nc(N2CCc3ccc(Oc4ccc(C(F)(F)F)cc4)cc3C2)cs1` [P-0134, 4-(7-(4-(trifluorometh-yl)phenoxy)-3,4-dihydro-isoquinolin-2(1H)-yl)thi-azole-2-carbonitrile], the IC50 was in the range of 0.001 to 10 µM. As to `CC(NS(C)(=O)=O)C(=O)N1CCc2ccc(Oc3ccc(C(F)(F)F)cc3)cc2C1` (stereo not shown) [P-0135, N-(1-oxo-1-(7-(4-(trifluoromethyl)phen-oxy)-3,4-dihydroisoquin-olin-2(1H)-yl)propan-2-yl)methanesulfonamide], the IC50 was 0.001 to 10 µM. `O=C(NC1(C(=O)N2CCc3ccc(Oc4ccc(C(F)(F)F)cc4)cc3C2)CC1)C(F)(F)F` [P-0136, 2,2,2-trifluoro-N-(1-(7-(4-(trifluoromethyl)phen-oxy)-1,2,3,4-tetrahydro-isoquinoline-2-carbonyl)-cyclopropyl)acetamide]: the IC50 is 0.001 to 10 µM.

Consider `Nc1nc(CC(=O)N2CCc3ccc(Oc4ccc(C(F)(F)F)cc4)cc3C2)cs1` [P-0137, 2-(2-aminothiazol-4-yl)-1-(7-(4-(trifluoromethyl)-phenoxy)-3,4-dihydroiso-quinolin-2(1H)-yl)ethan-1-one], for which the IC50 was in the range of 0.001 to 10 µM.

Regarding `CN1C(=O)SC(CC(=O)N2CCc3ccc(Oc4ccc(C(F)(F)F)c(F)c4)cc3C2)C1=O` (stereo not shown) [P-0138, 5-(2-(7-(3-fluoro-4-(trifluoromethyl)phen-oxy)-3,4-dihydroisoquin-olin-2(1H)-yl)-2-oxoeth-yl)-3-methylthiazolidine-2,4-dione], the IC50 lay in the range of 0.001 to 10 µM. The value for `O=C(Cc1c[nH]c(=O)[nH]c1=O)N1CCc2ccc(Oc3ccc(C(F)(F)F)c(F)c3)cc2C1` [P-0139, 5-(2-(7-(3-fluoro-4-(trifluoromethyl)phen-oxy)-3,4-dihydroisoquin-olin-2(1H)-yl)-2-oxoeth-yl)pyrimidine-2,4(1H, 3H)-dione] was 0.001 to 10 µM; that for `O=C1N[C@@H](CC(=O)N2CCc3ccc(Oc4ccc(C(F)(F)F)c(F)c4)cc3C2)CO1` [P-0140, (S)-4-(2-(7-(3-fluoro-4-(trifluoromethyl)phen-oxy)-3,4-dihydroisoquin-olin-2(1H)-yl)-2-oxoeth-yl)oxazolidin-2-one] was 0.001 to 10 µM. As for `O=C(CCS(=O)(=O)C(F)(F)F)N1CCc2ccc(Oc3ccc(C(F)(F)F)c(F)c3)cc2C1` [P-0141, 1-(7-(3-fluoro-4-(trifluoromethyl)phen-oxy)-3,4-dihydroiso-quinolin-2(1H)-yl)-3-((trifluoromethyl)sulfon-yl)propan-1-one], the IC50 was 0.001 to 10 µM. As to `O=C1NCCC1CC(=O)N1CCc2ccc(Oc3ccc(C(F)(F)F)c(F)c3)cc2C1` (stereo not shown) [P-0142, 3-(2-(7-(3-fluoro-4-(trifluoromethyl)phen-oxy)-3,4-dihydroisoquin-olin-2(1H)-yl)-2-oxoeth-yl)pyrrolidin-2-one], the IC50 lay in the range of 0.001 to 10 µM. Take `O=C(C1CCS(=O)(=O)CC1)N1CCc2ccc(Oc3ccc(C(F)(F)F)c(F)c3)cc2C1` [P-0143, (1,1-dioxidotetrahydro-2H-thiopyran-4-yl)(7-(3-fluoro-4-(trifluorometh-yl)phenoxy)-3,4-dihydro-isoquinolin-2(1H)-yl)-methanone]: the half-inhibitory concentration (IC50) is 0.001 to 10 µM. The value for `O=C(C1CNC1)N1CCc2ccc(Oc3ccc(C(F)(F)F)c(F)c3)cc2C1` [P-0144, azetidin-3-yl(7-(3-fluoro-4-(trifluoromethyl)phen-oxy)-3,4-dihydroisoquin-olin-2(1H)-yl)methanone] was 0.001 to 10 µM. Turning to `O=C(C1CCNC1)N1CCc2ccc(Oc3ccc(C(F)(F)F)c(F)c3)cc2C1` (stereo not shown) [P-0145, (7-(3-fluoro-4-(trifluoro-methyl)phenoxy)-3,4-dihydroisoquinolin-2(1H)-yl)(pyrrolidin-3-yl)methanone], the IC50 lay within 0.001 to 10 µM. The value for `O=C(C1CCCNC1)N1CCc2ccc(Oc3ccc(C(F)(F)F)c(F)c3)cc2C1` (stereo not shown) [P-0146, (7-(3-fluoro-4-(trifluoro-methyl)phenoxy)-3,4-dihydroisoquinolin-2(1H)-yl)(piperidin-3-yl)methanone] was 0.001 to 10 µM; that for `O=C(C1CCNCC1)N1CCc2ccc(Oc3ccc(C(F)(F)F)c(F)c3)cc2C1` [P-0147, (7-(3-fluoro-4-(trifluoro-methyl)phenoxy)-3,4-dihydroisoquinolin-2(1H)-yl)(piperidin-4-yl)-methanone] was 0.001 to 10 µM. In the case of `O=C(Cc1nnn[nH]1)N1CCc2ccc(Oc3ccc(C(F)(F)F)c(F)c3)cc2C1` [P-0148, 1-(7-(3-fluoro-4-(trifluoromethyl)phen-oxy)-3,4-dihydroisoquin-olin-2(1H)-yl)-2-(1H-tetrazol-5-yl)ethan-1-one], the IC50 lay within 0.001 to 10 µM. The value for `O=C(Cc1ccn[nH]1)N1CCc2ccc(Oc3ccc(C(F)(F)F)c(F)c3)cc2C1` [P-0149, 1-(7-(3-fluoro-4-(trifluoromethyl)phen-oxy)-3,4-dihydroiso-quinolin-2(1H)-yl)-2-(1H-pyrazol-5-yl)-ethan-1-one] was 0.001 to 10 µM.

(Values after patent US20250129028A1, “COMPOUNDS AND METHODS FOR YAP/TEAD MODULATION AND INDICATIONS THEREFOR” (Opna Bio SA, priority 2022, published 2025).)
